Experimental data: patent publication US12409160B1, “Compositions and methods for treatment of peri-implantitis and periodontitis” (Cusp Biosciences, Inc., priority 2025, dated 2025)

Key:
[1] = test system: human periodontal ligament cells (hPDLCs); assay: Cell viability (MTT) of hPDLCs; type: cell-based; details: Day 1 (24 h)
hPDLF monolayers = assay: Scratch-wound closure in hPDLF monolayers; type: cell-based, human; details: over 24 h after treatment
[2] = cited from earlier work
[3] = test system: RAW 264.7 pre-osteoclasts; assay: Osteoclastogenesis: hPDLC medium on RAW 264.7 pre-osteoclasts, TRAP staining; type: cell-based
[4] = test system: hPDLF / CD14+ monocyte co-culture; assay: TRAP-positive multinucleated osteoclasts on bone slices after seven-day co-culture; type: cell-based, human
Procedure: Culture primary human periodontal-ligament fibroblasts (hPDLFs) and autologous CD14^+ monocytes in a trans-well co-culture that recapitulates the paracrine crosstalk driving osteoclastogenesis. […] At 48 h collect supernatants and lysates.
• a. […] Secondary Read-Outs: • a.

[5] = test system: human periodontal-ligament fibroblasts (hPDLFs) and CD14+ monocytes; assay: hPDLF / CD14+ monocyte trans-well co-culture, ELISA of supernatants; type: cell-based
Procedure: Culture primary human periodontal-ligament fibroblasts ([…]) and autologous CD14^+ monocytes in a trans-well co-culture that recapitulates the paracrine crosstalk driving osteoclastogenesis. After 24 h equilibration, expose triplicate wells to: (i) vehicle (0.1% DMSO); […] At 48 h collect supernatants and lysates. • a. […] Secondary Read-Outs: • a.

[6] = test system: human periodontal ligament cells (hPDLCs); assay: IL-1β and TNF-α in supernatant (ELISA) of LPS-challenged hPDLCs under CoCl2; type: cell-based; details: 2 μM simvastatin, LPS 1 μg/ml, vs LPS-Veh

For `CS(=O)(=O)c1ccc(Oc2cc(F)cc(C#N)c2)c2c1[C@H](O)[C@H](F)[C@@H]2F` [Belzutifan, belzutifan], the “Viability (% of No-Stim)” value [1] is given as greater than 90%, the scratch-wound closure kinetics (hPDLF monolayers) is given as “retain normal closure kinetics” and the “solubility in DMSO” value ([2]; DMSO, 25° C.) is given as “≈ 77 mg mL-1”. The solubility in ethanol ([2]; ethanol) was “sparingly soluble”, the solubility in water ([2]; water across pH 1-8) was “practically insoluble” and the “reduction in osteoclast formation” value ([3]; at 1%) was no less than 65%. For the same compound, the “cut of osteoclast formation” value ([4]; at 1 nM) was greater than 60%, the “cut of RANKL and pro-inflammatory cytokines versus vehicle” value ([5]; ELISA at 48 h, belzutifan 0.1, 1, 10 nM) was no less than 70% and the “VEGF preserved, of VEGF seen in vehicle” value ([5]; VEGF-A secretion, 48 h) was no less than 80%.

With `COC(=O)CNC(=O)C(=O)OC` [DMOG] the “effect on osteoclast formation” value ([4]; DMOG 1 mM) was “increases”.

With `CCC(C)(C)C(=O)O[C@H]1C[C@@H](C)C=C2C=C[C@H](C)[C@H](CC[C@@H]3C[C@@H](O)CC(=O)O3)[C@H]21` [SIMV, simvastatin] the “IL-1β (24 h), decrease (↓)” value [6] was “↓ 25%”, the “TNF-α (24 h), decrease (↓)” value [6] was “↓ 20%” and the “TRAP+ osteoclasts (cells per well)” value ([3]; 2 μM simvastatin) was 85 cells per well.
